Assay results taken from article PMC6248931 (Science Advances, 2018).

How the values were obtained:
HIV [1] = settings: cited from earlier work
influenza virus = settings: cited from earlier work
HIV HR1-HR2 interaction = type: binding
HIV HR2 peptide = HIV HR2 peptide (Human immunodeficiency virus type 1, UniProt P03377); type: binding
HIV-1 pseudovirions = type: cell-based; settings: 1 μM
HIV [2] = settings: human, in vivo; cited from earlier work

HIV HR2 peptide, sequence (P03377 633-666 limits assumed): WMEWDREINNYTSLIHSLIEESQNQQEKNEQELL

## C=C(C)[C@@H]1CC[C@]2(C(=O)O)CC[C@]3(C)[C@H](CC[C@@H]4[C@@]5(C)CC[C@H](O)C(C)(C)[C@@H]5CC[C@]43C)[C@@H]12 [BA, betulinic acid]
HIV [1]
  inhibitory activity against HIV infection: show inhibitory activity

## CC1(C)CC[C@]2(C(=O)O)CC[C@]3(C)C(=CC[C@@H]4[C@@]5(C)CC[C@H](O)C(C)(C)[C@@H]5CC[C@]43C)[C@@H]2C1 [OA, oleanolic acid]
HIV [1]
  inhibitory activity against HIV infection: show inhibitory activity
Influenza virus
  inhibitory effect on influenza virus entry: significant inhibitory effect

## C=C(C)[C@@H]1CC[C@]2(C(=O)NCCCCCCCC(=O)N(CCCC3(C)N=N3)CC(=O)O)CC[C@]3(C)C(CCC4[C@@]5(C)CC[C@H](O)C(C)(C)C5CC[C@]43C)C12 (stereo partly shown) [Y20]
HIV HR1-HR2 interaction
  effect on HIV-HR1/HIV-HR2 affinity (in words): significantly reduced their affinity
HIV HR2 peptide
  binding to HIV-HR2 (in words): binds tightly
HIV-1 pseudovirions
  inhibitory activity on the infectivity of HIV-1 pseudovirions: exhibited inhibitory activity

## C=C(C)[C@@H]1CC[C@]2(C(=O)O)CC[C@]3(C)[C@H](CC[C@@H]4[C@@]5(C)CC[C@H](OC(=O)CC(C)(C)C(=O)O)C(C)(C)[C@@H]5CC[C@]43C)[C@@H]12 [bevirimat]
HIV [2]
  efficacy in clinical trials: promising efficacy
